Data on five molecules can be found in ChEMBL document CHEMBL1140624, “Improved biochemical strategies for targeted delivery of taxoids” (Bioorg Med Chem, 2007).

For data set [1], the system named is Mus musculus. The experiment in a line: Reduction of body weight in human L2987 xenografted athymic mouse at 125 mg/kg. In kind it is functional. The arrangement: scale not given: the % may be the effect or the level left. (In general: In xenograft studies the graft and the host belong to different species.)
A short description of data set [2]: Half life in DTT buffer assessed as taxol release. It counts as ADME.
The nature of data set [3]: Half life in presence of 50 ug/mL beta-glucuronidase assessed as taxol release. It counts as ADME.
The species named for data set [4] is Mus musculus. The experiment in a line: Toxicity assessed as reduction of body weight in mouse. It counts as organism-based. The note with it: in vivo.
Data set [5] deals with MDA-MB-231. The experiment in a line: Cytotoxicity against ERalpha negative human MDA-MB-231 cells. It counts as functional, cell-based.
Data set [6] relates to MCF7. The experiment in a line: Cytotoxicity against ERalpha positive human MCF7 cells. It counts as functional, cell-based.
The test system of data set [7] is PC-3. The experiment in a line: Cytotoxicity against ERbeta positive human PC3 cells. It counts as functional, cell-based.
Data set [8] concerns A2780. As to the kind of experiment: Cytotoxicity against ERbeta negative human A2780 cells. In kind it is functional, cell-based.
Data set [9] deals with MCF-7 (Homo sapiens). As to the kind of experiment: Ratio of IC50 for ERalpha positive human MCF-7 cells to IC50 for ERalpha negative human MDA-MB-231 cells.
The test system of data set [10] is HT-29. As to the kind of experiment: Cytotoxicity against human HT29 cells. It counts as functional, cell-based. The note with it: read-out: ED50 (the source's name).
A short description of data set [11]: Half life at pH 7. It counts as ADME. The note with it: buffer.
The nature of data set [12]: Half life at pH 5. In kind it is ADME. Conditions: buffer.

The structures appear in SMILES notation. ≈ marks a conversion by molar mass, not a printed value. A value given as a limit tells only on which side of the number the result lay.

On to `CC(=O)O[C@H]1C(=O)[C@@]2(C)[C@H]([C@H](OC(=O)c3ccccc3)[C@]3(O)C[C@H](OC(=O)[C@H](OC(=O)C(C)(C)CCSSC[C@H](C)C(=O)N4CCC[C@@H]4C(=O)O)[C@@H](NC(=O)c4ccccc4)c4ccccc4)C(C)=C1C3(C)C)[C@]1(OC(C)=O)CO[C@@H]1C[C@@H]2O`, for which the Activity in data set [1] worked out at 10%. Also, the t1/2 in data set [2] amounted to 0.417 h.

As for `CC(=O)O[C@H]1C(=O)[C@@]2(C)[C@H]([C@H](OC(=O)c3ccccc3)[C@]3(O)C[C@H](OC(=O)[C@H](OC(=O)N(C)CCN(C)C(=O)OCc4ccc(O)c(N)c4)[C@@H](NC(=O)c4ccccc4)c4ccccc4)C(C)=C1C3(C)C)[C@]1(OC(C)=O)CO[C@@H]1C[C@@H]2O`, the t1/2 in data set [3] stood at 0.217 h.

For the molecule `CC(=O)O[C@H]1C(=O)[C@@]2(C)[C@H]([C@H](OC(=O)c3ccccc3)[C@]3(O)C[C@H](OC(=O)[C@H](OC(=O)CN(C)CC(=O)NCCOCCOCCOCCNC(=O)CCC(NC(=O)c4ccc(NCc5cnc6nc(N)[nH]c(=O)c6n5)cc4)C(=O)O)[C@@H](NC(=O)c4ccccc4)c4ccccc4)C(C)=C1C3(C)C)[C@]1(OC(C)=O)CO[C@@H]1C[C@@H]2O` (stereo partly drawn), in data set [4], the Activity result was “Non-toxic”.

The term IC50 denotes the concentration at which inhibition is half-maximal. Turning to `CC(=O)O[C@H]1C(=O)[C@@]2(C)[C@H]([C@H](OC(=O)c3ccccc3)[C@]3(O)C[C@H](OC(=O)[C@@H](OC(=O)CCC(=O)O[C@@H]4C[C@]5(C)[C@@H](O)CC[C@H]5[C@@H]5CCc6cc(O)ccc6[C@H]54)[C@@H](NC(=O)c4ccccc4)c4ccccc4)C(C)=C1C3(C)C)[C@]1(OC(C)=O)CO[C@@H]1C[C@@H]2O`, the IC50 in [5] amounted to 304 nM; in data set [6], 103 nM; in data set [7] it was 68 nM; in [8], 1900 nM. The “Ratio IC50” value in data set [9] stood at 3.

As a reminder, the half-life is how long it takes for the measured level to halve. For `CC(=O)O[C@H]1C(=O)[C@@]2(C)[C@H]([C@H](OC(=O)c3ccccc3)[C@]3(O)C[C@H](OC(=O)[C@H](OC(=O)COCC(=O)NCCOCCOCCOCCNC(=O)CCC(NC(=O)c4ccc(NCc5cnc6nc(N)[nH]c(=O)c6n5)cc4)C(=O)O)[C@@H](NC(=O)c4ccccc4)c4ccccc4)C(C)=C1C3(C)C)[C@]1(OC(C)=O)CO[C@@H]1C[C@@H]2O` (stereo partly drawn), the figures for the EC50 in [6] (read-out: ED50 (the source's name)) and in [10] were 3.3 ng/mL (≈ 2.11 nM) and 2.9 ng/mL (≈ 1.85 nM), respectively. Also, the results for the half-life in [11] and in data set [12] were 40 h and greater than 300 h, respectively.
